Measured values reported in PMC6943441, “The Meta-Position of Phe^4 in Leu-Enkephalin Regulates Potency, Selectivity, Functional Activity, and Signaling Bias at the Delta and Mu Opioid Receptors” (Molecules, 2019).
Read-outs that look alike come from different tables or passages of the source. Square brackets hold non-standard residues; d marks the D form. Peptide text beside a SMILES is read from it. 3Pal = N[C@@H](Cc1cccnc1)C(=O)O; 4Pal = N[C@@H](Cc1ccncc1)C(=O)O

Columns and labels:
δOR [1] = molecular target: T1, δOR (Homo sapiens, UniProt P41143); assay: Competition radioligand binding, [3H]DPDPE; conditions: for Binding Selectivity (δOR vs µOR): ratio of Ki values
T1 sequence (P41143 whole entry): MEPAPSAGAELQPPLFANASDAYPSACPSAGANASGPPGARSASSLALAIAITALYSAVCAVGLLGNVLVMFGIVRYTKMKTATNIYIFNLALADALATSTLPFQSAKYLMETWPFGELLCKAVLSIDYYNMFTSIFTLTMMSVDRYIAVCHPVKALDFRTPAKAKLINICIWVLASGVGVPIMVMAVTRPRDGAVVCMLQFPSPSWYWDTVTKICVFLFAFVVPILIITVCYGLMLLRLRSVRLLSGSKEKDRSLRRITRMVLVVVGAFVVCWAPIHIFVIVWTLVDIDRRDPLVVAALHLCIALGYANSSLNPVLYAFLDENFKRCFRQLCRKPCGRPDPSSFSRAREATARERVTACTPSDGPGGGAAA
Experimental: (§1) Next, 100 µL of membrane suspension containing 7 µg protein was added to the agonist wells and incubated for 90 min at room temperature. The reaction mixture was then filtered over a GF-B filter plate (Perkin Elmer) followed by four quick washes with ice-cold 50 mM Tris HCl. The plate was dried overnight, after which 50 µL scintillation fluid (Ultimagold uLLT) was added and radioactivity was counted on a Packard TopCount NXT scintillation counter. All working solutions were prepared in a radioligand assay buffer containing 50 mM Tris HCl, 10 mM MgCl2, and 1 mM ethylenediaminetetraacetic acid at pH 7.4.

µOR [2] = molecular target: T2, µOR (Homo sapiens, UniProt P35372); assay: Competition radioligand binding, [3H]DAMGO
T2 sequence (P35372 whole entry): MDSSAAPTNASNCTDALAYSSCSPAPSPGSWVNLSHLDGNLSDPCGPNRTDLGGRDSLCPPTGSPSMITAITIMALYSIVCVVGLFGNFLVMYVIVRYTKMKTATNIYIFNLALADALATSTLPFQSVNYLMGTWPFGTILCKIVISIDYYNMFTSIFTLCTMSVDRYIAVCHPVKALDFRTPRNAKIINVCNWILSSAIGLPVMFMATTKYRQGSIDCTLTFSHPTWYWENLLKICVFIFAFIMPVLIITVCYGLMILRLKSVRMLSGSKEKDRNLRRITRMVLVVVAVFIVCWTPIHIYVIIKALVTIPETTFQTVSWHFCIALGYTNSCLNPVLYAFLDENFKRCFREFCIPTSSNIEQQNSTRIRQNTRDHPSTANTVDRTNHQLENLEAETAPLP
Experimental: as §1

FLAG-mouse δOR = molecular target: T3, FLAG-mouse δOR (Mus musculus, UniProt P32300); assay: cAMP GloSensor inhibition assay in HEK 293 cells; assay type: cell-based; conditions: for IC50: HEK 293, forskolin 30 µM, read-out: cAMP IC50 (nM) δOR; for G Protein Selectivity (δOR vs µOR): cAMP potency δOR vs µOR
T3 construct: FLAG; expressed in transfected cells; host or cells: HEK 293
T3 sequence (P32300 whole entry): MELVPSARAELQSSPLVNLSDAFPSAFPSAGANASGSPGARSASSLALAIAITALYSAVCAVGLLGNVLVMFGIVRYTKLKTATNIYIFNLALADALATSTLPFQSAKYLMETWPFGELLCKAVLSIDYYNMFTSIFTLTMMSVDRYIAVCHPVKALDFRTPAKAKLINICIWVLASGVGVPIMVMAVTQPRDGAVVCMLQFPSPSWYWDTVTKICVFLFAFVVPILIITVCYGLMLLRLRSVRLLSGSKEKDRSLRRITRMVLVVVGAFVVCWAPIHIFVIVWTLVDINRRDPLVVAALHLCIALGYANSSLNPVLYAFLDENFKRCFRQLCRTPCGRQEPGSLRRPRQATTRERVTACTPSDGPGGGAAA
Experimental: (§2) In brief, for cAMP inhibition assays HEK 293 (Life Technologies, Grand Island, NY, USA) cells were transiently transfected in a 1:3 ratio with FLAG-mouse δOR, or HA-mouse µOR and pGloSensor22F-cAMP plasmids (Promega, Madison, WI, USA) using Xtremegene9 (Sigma). Two days post-transfection cells (20,000 cells/well, 7.5 µL) were seeded in low volume Greiner 384-well plates (#82051-458, VWR, Batavia, IL, USA) and were incubated with Glosensor reagent (Promega, 7.5 µL, 2% final concentration) for 90 min at room temperature. […] For β-arrestin recruitment assays, CHO-human µOR PathHunter β-arrestin 2 cells or CHO-human δOR PathHunter β-arrestin 2 cells (DiscoverX, Fremont, CA, USA) were plated (2,500 cells/well, 10 µL) one day prior to stimulation with 2.5 µL drug solution for 90 min at 37 °C/5% CO2, after which cells were incubated with 6 µL cell PathHunter assay buffer (DiscoverX) for 60 min at room temperature as per the manufacturer’s protocol. Luminescence for each of these assays was measured using a FlexStation3 plate reader (Molecular Devices, Sunnyvale, CA, USA).
(§3) All data are presented as means ± standard error of the mean, and analysis was performed using GraphPad Prism 8 software (GraphPad Software, La Jolla, CA). For in vitro assays, nonlinear regression was conducted to determine pIC50 (cAMP) or pEC50 (β-arrestin 2 recruitment). […] The averages of each independent run were counted as a single experiment and combined to provide a composite curve in favor of providing a ‘representative’ curve. In each experimental run, a positive control/reference compound was utilized to allow the data to be normalized and to calculate the log bias value. A minimum of three independent values were obtained for each compound in each of the cellular assays.

HA-mouse µOR = molecular target: T4, HA-mouse µOR (Mus musculus, UniProt P42866); assay: cAMP GloSensor inhibition assay in HEK 293 cells; assay type: cell-based; conditions: HEK 293, forskolin 30 µM; read-out: cAMP IC50 (nM) µOR
T4 construct: HA; expressed in transfected cells; host or cells: HEK 293
T4 sequence (P42866 whole entry): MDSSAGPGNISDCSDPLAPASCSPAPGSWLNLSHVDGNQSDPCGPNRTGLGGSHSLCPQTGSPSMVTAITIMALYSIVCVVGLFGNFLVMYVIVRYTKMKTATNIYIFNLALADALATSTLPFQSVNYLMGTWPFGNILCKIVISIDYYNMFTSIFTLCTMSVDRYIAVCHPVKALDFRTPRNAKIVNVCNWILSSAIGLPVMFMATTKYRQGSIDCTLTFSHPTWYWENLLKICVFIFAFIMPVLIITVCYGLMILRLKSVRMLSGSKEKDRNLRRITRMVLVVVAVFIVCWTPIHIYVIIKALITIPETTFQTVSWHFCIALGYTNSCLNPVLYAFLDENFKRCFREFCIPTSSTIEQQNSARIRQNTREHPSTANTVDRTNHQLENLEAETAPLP
Experimental: as §2, §3

µOR [3] = molecular target: T2, µOR; assay: cell-based; assay type: cell-based; conditions: CHO PathHunter; read-out: β-Arrestin 2 EC50 (nM) µOR
Experimental: as §2, §3

Rat plasma stability = conditions: for Degradation Products (First Appearance): rat plasma, UPLC-mass spectrometry, time of first appearance in parentheses; for half-life: rat, plasma
Experimental: Peptides were synthesized using an Aapptec Focus XC automated peptide synthesizer coupled with a heating system using a solid phase peptide synthesis protocol using Fmoc chemistry. Preparative RP-HPLC was performed using an appropriate column and solvent system (described below) and final purity of peptides was determined by UV area % from UPLC analysis. Peptides were purified by Teledyne ISCO EZ Prep system on RediSep® C18 Prep column (30 × 250 mm, 100 Å). […] Plasma stability was also assessed using the above UPLC column and solvent gradient program using a Waters H class Plus Acquity UPLC system coupled with a QDa detector using protocol B.
Sprague Dawley rat plasma containing K2-ethylenediaminetetraacetic acid (Innovative Research, MI, USA) was transferred into 300 µL aliquots and stored at −20 °C until use. […] After adding analog, an aliquot of the mixture was removed at each indicated time point (0, 5, 10, 15, 20, 30, 60, 120, 240 min) and immediately quenched with 100 μL of a methanol solution containing 20 μM Fmoc-Leu-OH as an internal standard. […] Then, the filtrate was transferred into vials and a 5 μL sample of the resulting solution was analyzed on an UPLC system coupled with a QDa detector. […] Determination of half-life (t1/2) was carried out by using the GraphPad Prism one-phase decay method.

δOR [4] = molecular target: T1, δOR; assay: PathHunter β-arrestin 2 recruitment assay in CHO cells
Experimental: as §2, §3

δOR [5] = molecular target: T1, δOR; conditions: at best; cited from earlier work
δOR [6] = molecular target: T1, δOR; conditions: cited from earlier work
δOR [7] = molecular target: T1, δOR; conditions: literature value; cited from earlier work
δOR [8] = molecular target: T1, δOR; conditions: cited from earlier work; remark: listed apart in the source
µOR [9] = molecular target: T2, µOR; conditions: BRET (β-arrestin 2) and EPAC (cAMP) assays; footnote prints reference 26; cited from earlier work

Compound: CC(C)C[C@H](NC(=O)[C@H](Cc1cccnc1)NC(=O)CNC(=O)CNC(=O)[C@@H](N)Cc1ccc(O)cc1)C(=O)O [Compound 1k] (H-YGG[3Pal]L-OH; N-terminus and C-terminus assumed)
- Ki (δOR [1]): 33.1 nM
- Binding Selectivity (δOR vs µOR) (δOR [1]): 4.8
- Ki (µOR [2]): 158 nM
- IC50 (FLAG-mouse δOR): 47.9 nM
- G Protein Selectivity (δOR vs µOR) (FLAG-mouse δOR): 4.9
- IC50 (HA-mouse µOR): 234 nM
- EC50 (µOR [3]): 41700 nM
- Degradation Products (First Appearance) (Rat plasma stability): (3-pyridyl)Ala-Leu (10 min) Gly-Gly-(3-pyridyl)Ala-Leu (20 min)
- half-life (Rat plasma stability): 0.9 h
- EC50 (δOR [4]): 1120 nM

Compound: CC(C)C[C@H](NC(=O)[C@H](Cc1ccncc1)NC(=O)CNC(=O)CNC(=O)[C@@H](N)Cc1ccc(O)cc1)C(=O)O [Compound 1l] (H-YGG[4Pal]L-OH; N-terminus and C-terminus assumed)
- Ki (δOR [1]): 20.4 nM
- Binding Selectivity (δOR vs µOR) (δOR [1]): 1.9
- Ki (µOR [2]): 38.9 nM
- IC50 (FLAG-mouse δOR): 30.2 nM
- G Protein Selectivity (δOR vs µOR) (FLAG-mouse δOR): 10
- IC50 (HA-mouse µOR): 302 nM
- EC50 (µOR [3]): 37200 nM
- Degradation Products (First Appearance) (Rat plasma stability): (4-pyridyl)Ala-Leu (10 min) Gly-Gly-(4-pyridyl)Ala-Leu (30 min)
- half-life (Rat plasma stability): 1.3 h
- EC50 (δOR [4]): 398 nM

Compound: Dmt-Tic-Gly-NH-Ph
- selectivity for δORs over µORs (δOR [5]): ≤ 10 fold

Compound: aza-β-homoleucine-enkephalin
- β-arrestin 2 efficacy (δOR [6]): 64%
- G Protein Selectivity (δOR vs µOR) (δOR [7]): 9.9 [23]
- Bias Factor δOR (δOR [8]; BRET (β-arrestin 2) and EPAC (cAMP) assays, footnote prints reference 26): 5.2
- Bias Factor δOR (δOR [8]; BRET (β-arrestin 2) and EPAC (cAMP) assays, footnote prints reference 26, listed as Aza-β-homoleucine): 5.2 ^¶
- Bias Factor µOR (LE = Ref) (µOR [9]): 1.2
- selectivity for δORs over µORs (δOR [5]): ≤ 10 fold

Compound: rubiscolin-6
- β-arrestin 2 efficacy (δOR [6]): 20%
- Bias Factor δOR (δOR [8]; literature value): 2.0
